The values that follow come from patent US10106544B2, “1,2-dihydro-3H-pyrrolo[1,2-C]imidazol-3-one derivatives and their use as antibacterial agents” (priority 2014, dated 2018).

Each structure is given as a SMILES string. In brackets after ≈: the same amount, converted by molar mass.

Holding throughout (assay): Bacterial growth minimal inhibitory concentration (microdilution, cation-adjusted Mueller-Hinton Broth)
Common to all, as to type: cell-based
For orientation: Broth dilution looks for growth in wells or tubes with falling amounts of substance.

For one assay, the system named is P. aeruginosa ATCC27853. The following applies: for MIC: Pseudomonas aeruginosa, ATCC27853, quinolone-sensitive strain, read-out: MIC for P. aeruginosa ATCC27853; for MIC for P. aeruginosa ATCC27853: quinolone-sensitive strain. In outline: (§1)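 Broth microdilution in cation-adjusted Mueller-Hinton Broth per CLSI M7-A7, MIC in mg/L. K. pneumoniae A-651 is multiply resistant, including to quinolones. E. coli ATCC25922 and P. aeruginosa ATCC27853 are quinolone-sensitive.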

Another assay relates to E. coli ATCC25922. As to conditions: quinolone-sensitive strain; for MIC: Escherichia coli, ATCC25922, read-out: MIC for E. coli ATCC25922. Put shortly: as §1
The test system of another assay is K. pneumoniae A-651. The following applies: multiply-resistant strain (in particular quinolone-resistant); for MIC: Klebsiella pneumoniae, A651, read-out: MIC for K. Pneumoniae A-651. Put shortly:
as §1

What is called MIC is the lowest concentration found to suppress growth. With `C[C@@](CCN1Cc2cc(C#CC#CC3(O)CCOCC3)cn2C1=O)(C(=O)NO)S(C)(=O)=O` [Example 64, (R)-N-hydroxy-4-(6-((4-hydroxytetrahydro-2H-pyran-4-yl)buta-1,3-diyn-1-yl)-3-oxo-1H-pyrrolo[1,2-c]imidazol-2(3H)-yl)-2-methyl-2-(methylsulfonyl)butanamide], the values for the MIC with P. aeruginosa ATCC27853, in the assay on E. coli ATCC25922 and with K. pneumoniae A-651 were 4 µg/mL (≈ 8.63 µM), 4 µg/mL (≈ 8.63 µM) and 8 µg/mL (≈ 17.3 µM), respectively.

As to `C[C@@](CCN1Cc2cc(C#Cc3ccc(NC(=O)CO)c(F)c3)cn2C1=O)(C(=O)NO)S(C)(=O)=O` [Example 21, (R)-4-(6-((3-fluoro-4-(2-hydroxyacetamido)phenyl)ethynyl)-3-oxo-1H-pyrrolo[1,2-c]imidazol-2(3H)-yl)-N-hydroxy-2-methyl-2-(methylsulfonyl)butanamide], the MIC is 1 µg/mL (≈ 1.97 µM) with P. aeruginosa ATCC27853, 0.25 µg/mL (≈ 0.494 µM) in the assay with E. coli ATCC25922 and 1 µg/mL (≈ 1.97 µM) with K. pneumoniae A-651.

Consider `C[C@@](CCN1Cc2cc(C#CC#C[C@@]3(F)C[C@@H]3CO)cn2C1=O)(C(=O)NO)S(C)(=O)=O` (relative stereo) [Example 67, (R)-4-(6-(((1R*,2R*)-1-fluoro-2-(hydroxymethyl)cyclopropyl)buta-1,3-diyn-1-yl)-3-oxo-1H-pyrrolo[1,2-c]imidazol-2(3H)-yl)-N-hydroxy-2-methyl-2-(methylsulfonyl)butanamide], for which the “MIC for P. aeruginosa ATCC27853” value in the assay on P. aeruginosa ATCC27853 is 0.5 µg/mL. Moreover, the “MIC for E. coli ATCC25922” value in the assay with E. coli ATCC25922 stood at 0.125 µg/mL. Moreover, the “MIC for K. Pneumoniae A-651” value against K. pneumoniae A-651 turned out to be 0.5 µg/mL.

Consider `CC(C)(O)C#CC#Cc1cc2n(c1)C(=O)N(CCC(C)(C(=O)NO)S(C)(=O)=O)C2` (racemic) [RE5, (RS)—N-hydroxy-4-(6-(5-hydroxy-5-methylhexa-1,3-diyn-1-yl)-3-oxo-1H-pyrrolo[1,2-c]imidazol-2(3H)-yl)-2-methyl-2-(methylsulfonyl)butanamide], for which the MIC in the assay with P. aeruginosa ATCC27853 worked out at 4 µg/mL (≈ 9.49 µM); in the assay on E. coli ATCC25922, 2 µg/mL (≈ 4.75 µM); in the assay on K. pneumoniae A-651 it was 8 µg/mL (≈ 19 µM).

Turning to `C[C@@](CCN1Cc2cc(C#CC#CC[C@]3(O)C[C@@H](CO)C3)cn2C1=O)(C(=O)NO)S(C)(=O)=O` [Example 73, (R)-N-hydroxy-4-(6-(5-((1s,3R)-1-hydroxy-3-(hydroxymethyl)cyclobutyl)penta-1,3-diyn-1-yl)-3-oxo-1H-pyrrolo[1,2-c]imidazol-2(3H)-yl)-2-methyl-2-(methylsulfonyl)butanamide], the “MIC for P. aeruginosa ATCC27853” value in the assay with P. aeruginosa ATCC27853 worked out at 4 µg/mL. Moreover, the “MIC for E. coli ATCC25922” value against E. coli ATCC25922 was 8 µg/mL. The “MIC for K. Pneumoniae A-651” value in the assay with K. pneumoniae A-651 was 16 µg/mL.

Consider `CC(C)(CO)c1ccc(C#Cc2cc3n(c2)C(=O)N(CC[C@](C)(C(=O)NO)S(C)(=O)=O)C3)cc1` [Example 9, (R)-N-hydroxy-4-(6-((4-(1-hydroxy-2-methylpropan-2-yl)phenyl)ethynyl)-3-oxo-1H-pyrrolo[1,2-c]imidazol-2(3H)-yl)-2-methyl-2-(methylsulfonyl)butanamide], for which the MIC was determined as 0.5 µg/mL (≈ 1.03 µM) in the assay with P. aeruginosa ATCC27853, 0.25 µg/mL (≈ 0.513 µM) with E. coli ATCC25922 and 0.5 µg/mL (≈ 1.03 µM) in the assay on K. pneumoniae A-651.

As for `CCOC(C)(C)c1ccc(C#Cc2cc3n(c2)C(=O)N(CCC(C)(C(=O)NO)S(C)(=O)=O)C3)cc1` (racemic) [RE2, (RS)-4-(6-((4-(2-ethoxypropan-2-yl)phenyl)ethynyl)-3-oxo-1H-pyrrolo[1,2-c]imidazol-2(3H)-yl)-N-hydroxy-2-methyl-2-(methylsulfonyl)butanamide], the MIC with P. aeruginosa ATCC27853 came to 8 µg/mL (≈ 15.9 µM); in the assay with E. coli ATCC25922 it was 2 µg/mL (≈ 3.99 µM); in the assay with K. pneumoniae A-651 it was 2 µg/mL (≈ 3.99 µM).

For the compound `C[C@@](CCN1Cc2cc(C#Cc3ccc(C4(CO)COC4)cc3)cn2C1=O)(C(=O)NO)S(C)(=O)=O` [Example 70, (R)-N-hydroxy-4-(6-((4-(3-(hydroxymethyl)oxetan-3-yl)phenyl)ethynyl)-3-oxo-1H-pyrrolo[1,2-c]imidazol-2(3H)-yl)-2-methyl-2-(methylsulfonyl)butanamide], the MIC with P. aeruginosa ATCC27853 came to 2 µg/mL (≈ 3.99 µM); with E. coli ATCC25922 it was 1 µg/mL (≈ 1.99 µM); with K. pneumoniae A-651, 2 µg/mL (≈ 3.99 µM).

For `C[C@@](CCN1Cc2cc(C#Cc3ccc(C4(N)COC4)cc3)cn2C1=O)(C(=O)NO)S(C)(=O)=O` [Example 69, (R)-4-(6-((4-(3-aminooxetan-3-yl)phenyl)ethynyl)-3-oxo-1H-pyrrolo[1,2-c]imidazol-2(3H)-yl)-N-hydroxy-2-methyl-2-(methylsulfonyl)butanamide], the MIC in the assay with P. aeruginosa ATCC27853 worked out at 2 µg/mL (≈ 4.11 µM); with E. coli ATCC25922, 0.5 µg/mL (≈ 1.03 µM); with K. pneumoniae A-651, 2 µg/mL (≈ 4.11 µM).

Regarding `C[C@@](CCN1Cc2cc(C#CC#CC3(CO)COC3)cn2C1=O)(C(=O)NO)S(C)(=O)=O` [Example 57], in the assay with P. aeruginosa ATCC27853, the “MIC for P. aeruginosa ATCC27853” value stood at 4 µg/mL. Also, in the assay with E. coli ATCC25922, the “MIC for E. coli ATCC25922” value was determined as 1 µg/mL. Further, the “MIC for K. Pneumoniae A-651” value against K. pneumoniae A-651 amounted to 2 µg/mL.

As to `C[C@@](CCN1Cc2cc(C#Cc3ccc(C4(CO)CC4)nc3)cn2C1=O)(C(=O)NO)S(C)(=O)=O` [Example 23, (R)-N-hydroxy-4-(6-((6-(1-(hydroxymethyl)cyclopropyl)pyridin-3-yl)ethynyl)-3-oxo-1H-pyrrolo[1,2-c]imidazol-2(3H)-yl)-2-methyl-2-(methylsulfonyl)butanamide], the MIC with P. aeruginosa ATCC27853 came to 4 µg/mL (≈ 8.22 µM); in the assay on E. coli ATCC25922, 1 µg/mL (≈ 2.06 µM); in the assay on K. pneumoniae A-651 it was 4 µg/mL (≈ 8.22 µM).

`C[C@@](CCN1Cc2cc(C#CC#CC3(O)COC3)cn2C1=O)(C(=O)NO)S(C)(=O)=O` [Example 4, (R)-N-hydroxy-4-(6-((3-hydroxyoxetan-3-yl)buta-1,3-diyn-1-yl)-3-oxo-1H-pyrrolo[1,2-c]imidazol-2(3H)-yl)-2-methyl-2-(methylsulfonyl)butanamide]: the MIC with P. aeruginosa ATCC27853 worked out at 4 µg/mL (≈ 9.19 µM); in the assay with E. coli ATCC25922, 2 µg/mL (≈ 4.59 µM); in the assay with K. pneumoniae A-651 it was 2 µg/mL (≈ 4.59 µM).

As for `C[C@@](CCN1Cc2cc(C#Cc3ccc(C4(COC(N)=O)CC4)cc3)cn2C1=O)(C(=O)NO)S(C)(=O)=O` [Example 34, (R)-(1-(4-((2-(4-(hydroxyamino)-3-methyl-3-(methylsulfonyl)-4-oxobutyl)-3-oxo-2,3-dihydro-1H-pyrrolo[1,2-c]imidazol-6-yl)ethynyl)phenyl)cyclopropyl)methyl carbamate], the MIC was found to be 16 µg/mL (≈ 30.3 µM) in the assay on P. aeruginosa ATCC27853, 0.125 µg/mL (≈ 0.236 µM) in the assay on E. coli ATCC25922 and 1 µg/mL (≈ 1.89 µM) with K. pneumoniae A-651.

As for `C[C@@](CCN1Cc2cc(C#Cc3ccc(C(=O)CO)cc3)cn2C1=O)(C(=O)NO)S(C)(=O)=O` [Example 45, (R)-N-hydroxy-4-(6-((4-(2-hydroxyacetyl)phenyl)ethynyl)-3-oxo-1H-pyrrolo[1,2-c]imidazol-2(3H)-yl)-2-methyl-2-(methylsulfonyl)butanamide], the values for the MIC with P. aeruginosa ATCC27853, in the assay on E. coli ATCC25922 and in the assay with K. pneumoniae A-651 were 4 µg/mL (≈ 8.45 µM), 0.25 µg/mL (≈ 0.528 µM) and 1 µg/mL (≈ 2.11 µM), respectively.

For `C[C@@](CCN1Cc2cc(C#Cc3ccc(COC(N)=O)cc3)cn2C1=O)(C(=O)NO)S(C)(=O)=O` [Example 32, (R)-4-((2-(4-(hydroxyamino)-3-methyl-3-(methylsulfonyl)-4-oxobutyl)-3-oxo-2,3-dihydro-1H-pyrrolo[1,2-c]imidazol-6-yl)ethynyl)benzyl carbamate], the figures for the MIC with P. aeruginosa ATCC27853, with E. coli ATCC25922 and with K. pneumoniae A-651 were 0.5 µg/mL (≈ 1.02 µM), not above 0.063 µg/mL and 0.25 µg/mL (≈ 0.512 µM), respectively.

For `C[C@@](CCN1Cc2cc(C#Cc3ccc(C4(CN5CCOCC5)CC4)cc3)cn2C1=O)(C(=O)NO)S(C)(=O)=O` [Example 26, (R)-N-hydroxy-2-methyl-2-(methylsulfonyl)-4-(6-((4-(1-(morpholinomethyl)cyclopropyl)phenyl)ethynyl)-3-oxo-1H-pyrrolo[1,2-c]imidazol-2(3H)-yl)butanamide], the MIC in the assay with P. aeruginosa ATCC27853 is 4 µg/mL (≈ 7.21 µM); in the assay on E. coli ATCC25922, 1 µg/mL (≈ 1.8 µM); in the assay with K. pneumoniae A-651, 1 µg/mL (≈ 1.8 µM).

Consider `COCCOc1ccc(-c2cc3n(c2)C(=O)N(CCC(C)(C(=O)NO)S(C)(=O)=O)C3)cc1` (racemic) [RE8, (RS)—N-hydroxy-4-(6-(4-(2-methoxyethoxy)phenyl)-3-oxo-1H-pyrrolo[1,2-c]imidazol-2(3H)-yl)-2-methyl-2-(methylsulfonyl)butanamide], for which the minimum inhibitory concentration (MIC) with P. aeruginosa ATCC27853 was 8 µg/mL (≈ 17.2 µM); with E. coli ATCC25922, 2 µg/mL (≈ 4.3 µM); in the assay with K. pneumoniae A-651 it was 2 µg/mL (≈ 4.3 µM).

With `C[C@@](CCN1Cc2cc(C#Cc3ccc(C4(CO)CC4)cc3)cn2C1=O)(C(=O)NO)S(C)(=O)=O` [Example 7, (R)-N-hydroxy-4-(6-((4-(1-(hydroxymethyl)cyclopropyl)phenyl)ethynyl)-3-oxo-1H-pyrrolo[1,2-c]imidazol-2(3H)-yl)-2-methyl-2-(methylsulfonyl)butanamide], the MIC in the assay with P. aeruginosa ATCC27853 was found to be 0.5 µg/mL (≈ 1.03 µM); in the assay with E. coli ATCC25922, 0.125 µg/mL (≈ 0.257 µM); with K. pneumoniae A-651, 0.25 µg/mL (≈ 0.515 µM).

Take `C[C@@](CCN1Cc2cc(C#Cc3ccc(CN4CCC(O)CC4)cc3)cn2C1=O)(C(=O)NO)S(C)(=O)=O` [Example 80, (R)-N-hydroxy-4-(6-((4-((4-hydroxypiperidin-1-yl)methyl)phenyl)ethynyl)-3-oxo-1H-pyrrolo[1,2-c]imidazol-2(3H)-yl)-2-methyl-2-(methylsulfonyl)butanamide]: the figures for the MIC in the assay with P. aeruginosa ATCC27853, in the assay on E. coli ATCC25922 and in the assay with K. pneumoniae A-651 were 1 µg/mL (≈ 1.89 µM), 1 µg/mL (≈ 1.89 µM) and 2 µg/mL (≈ 3.78 µM), respectively.

`C[C@@](CCN1Cc2cc(/C=C/c3ccc(CO)cc3)cn2C1=O)(C(=O)NO)S(C)(=O)=O` [Example 29, (R)-(E)-N-hydroxy-4-(6-(4-(hydroxymethyl)styryl)-3-oxo-1H-pyrrolo[1,2-c]imidazol-2(3H)-yl)-2-methyl-2-(methylsulfonyl)butanamide]: the MIC in the assay with P. aeruginosa ATCC27853 is 2 µg/mL (≈ 4.47 µM); in the assay with E. coli ATCC25922, 0.25 µg/mL (≈ 0.559 µM); in the assay with K. pneumoniae A-651, 0.5 µg/mL (≈ 1.12 µM).

Turning to `C[C@@](CCN1Cc2cc(C#CC#CC3(N)CC3)cn2C1=O)(C(=O)NO)S(C)(=O)=O.Cl` [Example 38, (R)-4-(6-((1-aminocyclopropyl)buta-1,3-diyn-1-yl)-3-oxo-1H-pyrrolo[1,2-c]imidazol-2(3H)-yl)-N-hydroxy-2-methyl-2-(methylsulfonyl)butanamide hydrochloride], the MIC was found to be 1 µg/mL with P. aeruginosa ATCC27853, 0.25 µg/mL in the assay on E. coli ATCC25922 and 0.25 µg/mL in the assay on K. pneumoniae A-651.
